In US20140005276A1, “COMPOSITIONS COMPRISING SUBSTITUTED PHENOLS AND TOPICAL APPLICATION THEREOF” (priority 2012, published 2014):

Assays:
[1] = system: NF-kB; test: NF-κB INHIBITION TEST (NF-kB luciferase reporter, TNFα-stimulated H9c2 cells); type: cell-based, Rat
Protocol: The NF-κB INHIBITION TEST was conducted as follows. Rat cardiac myoblasts H9c2 cells were purchased from ATCC (Manassas, Va.). Cultures were maintained in Dulbecco's modified Eagle's medium (DMEM, Invitrogen Life Technologies, Carlsbad, Calif.) supplemented with 10% fetal bovine serum, 100 units/ml penicillin, and 50 ug/ml streptomycin (Invitrogen life technologies, Carlsbad, Calif.). 1×10^4 cells grown in 96-well plates were transiently transfected with 0.45 ug total DNA per well using Lipofectamine 2000 (Invitrogen life technologies, Carlsbad, Calif.). In all transfections, a construct with the thymidine kinase promoter and the Renilla luciferase reporter gene (pRL-TK, Promega, Madison Wis.) was included as an internal control in addition to the NF-kB luciferase promoter. One day after transfection, cells were treated with the indicated samples (in DMSO as vehicle) at indicated concentrations and stimulated with 100 ng/mL of Tumor Necrosis Factor-α (TNFα, Sigma-Aldrich, St Louis, Mo.) for approximately 24 hours before they were lysed for luciferase assays, using Dual-Luciferase Reporter System from Promega (Madison, Wis.), following manufacturer's protocol. Briefly, the firefly luciferase activity was measured first (representing NF-kB promoter activity), followed by the renilla luciferase (internal control), using luminometer LMAX, from Molecular Devices (Sunnyvale, Calif.). The ratio of these two luciferase activities (RLU) was used to evaluate the activity of each promoter:
NF-κB Inhibition=[1−(RLUsample/RLUcontrol)]*100
where RLUsample and RLUcontrol are the normalized luciferase activity ratios of the sample and control, respectively.
Percent NF-kB Inhibition is also reported.

[2] = system: Collagenase; test: Collagenase inhibition, EnzCheck assay; type: biochemical
Protocol: Collagenase inhibition was measured using EnzCheck® assay (Molecular Probes, Eugene, Oreg.) according to the manufacturer's instructions. Test materials were evaluated over a wide range of concentrations. Fluorescence was measured after 2-3 hours using a microplate reader set with the wavelength combination 485/530 nm

[3] = 10 ug/mL, TNFα 100 ng/ml stimulated H9c2 cells
[4] = 0.0001% by weight of alkylphenol
[5] = 0.001% by weight of alkylphenol

Structure (SMILES) | Percent NF-kB Inhibition relative to vehicle ([1]; 0.2 ug/ml, vehicle 0.1% DMSO) | Percent NF-kB Inhibition relative to vehicle ([1]; 0.5 ug/ml, vehicle 0.1% DMSO) | Percent NF-kB Inhibition relative to vehicle ([1]; 1 ug/ml, vehicle 0.1% DMSO) | Percent NF-kB Inhibition relative to vehicle ([1]; 2 ug/ml, vehicle 0.1% DMSO) | Percent NF-kB Inhibition relative to vehicle ([1]; 4 ug/ml, vehicle 0.1% DMSO) | Percent NF-kB Inhibition relative to vehicle [1, 3] | Percent Inhibition of Collagenase [2, 4] | Percent Inhibition of Collagenase [2, 5] | Percent Inhibition of Collagenase ([2]; 0.01% by weight of alkylphenol) | Percent Inhibition of Collagenase ([2]; 0.1% by weight of alkylphenol) | Percent Inhibition of Collagenase ([2]; 1% by weight of alkylphenol) | Percent NF-kB Inhibition relative to vehicle ([1]; 25 ug/mL, TNFα 100 ng/ml stimulated H9c2 cells)
Oc1ccc(/C=C/c2cc(O)cc(/C=C/c3ccc(O)cc3)c2)cc1 [1-hydroxyl 3,5-bis(4′hydroxylstyryl)benzene] | 0.5% | 22.1% | 51.7% | 71.0% | 96.1% | – | – | – | – | – | – | –
CCCCCc1ccc(O)cc1 [4-amylphenol] | – | – | – | – | – | 54.2% | 29.42% | 29.30% | 34.19% | 44.66% | 53.33% | –
CCCCc1ccc(O)cc1 [4-butylphenol] | – | – | – | – | – | – | 26.55% | 23.16% | 26.81% | 54.38% | 59.51% | –
CCCCCCc1ccc(O)cc1 [4-hexylphenol] | – | – | – | – | – | – | 19.57% | 16.90% | 27.67% | 28.82% | 46.13% | –
CCCc1ccc(O)cc1 [4-propylphenol, reference compound] | – | – | – | – | – | (−49.2%) | – | – | – | – | – | (−59.1%)
